{"source": "patent US11058716B2", "about": "(priority 2015, dated 2021)", "test_system": "PAO1 protein", "format": "cell-based, Pseudomonas aeruginosa"}
{"smiles": "N[C@@H](CCC(=O)N[C@@H](CSN=O)C(=O)NCC(=O)O)C(=O)O", "note": "[GSNO, nitrosoglutathione]", "values": [{"measurement": "overall SNO level of the PAO1 protein", "value": "increased significantly"}]}
